According to patent US7205295B2, “Benzoxazin-3-ones and derivatives thereof as therapeutic agents” (Warner-Lambert Company LLC, priority 2002, dated 2007):
Where a name gives a salt, the structure may show the parent alone.

Biological target: T1, PI3Kγ (p101/p110γ protein) (Homo sapiens, UniProt P48736)
T1 construct: HA; made in house; host or cells: Spodoptera frugiperda (Sf9) cells, baculovirus co-infection
Assay: PI3Kγ In Vitro Kinase Assay
Format: biochemical
Settings: purified recombinant p101/p110γ with G protein β1/γ2 subunits; 20 μM ATP, 25 μM PIP2; 20 minutes at room temperature
In short: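 Reactions ran 20 min at room temperature, pairing lipid micelles (25 μM PIP2, 300 μM PE, 0.02% Na-cholate, 10 mM MgCl2) with 20 μM ATP including [γ-32P]ATP. The enzyme was recombinant p101/p110γ (2.7 nM) with G protein β1/γ2 (57.7 nM). [32P]PIP3 product was stopped with H3PO4, filtered and scintillation counted.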

T1 sequence (P48736 whole entry, species assumed): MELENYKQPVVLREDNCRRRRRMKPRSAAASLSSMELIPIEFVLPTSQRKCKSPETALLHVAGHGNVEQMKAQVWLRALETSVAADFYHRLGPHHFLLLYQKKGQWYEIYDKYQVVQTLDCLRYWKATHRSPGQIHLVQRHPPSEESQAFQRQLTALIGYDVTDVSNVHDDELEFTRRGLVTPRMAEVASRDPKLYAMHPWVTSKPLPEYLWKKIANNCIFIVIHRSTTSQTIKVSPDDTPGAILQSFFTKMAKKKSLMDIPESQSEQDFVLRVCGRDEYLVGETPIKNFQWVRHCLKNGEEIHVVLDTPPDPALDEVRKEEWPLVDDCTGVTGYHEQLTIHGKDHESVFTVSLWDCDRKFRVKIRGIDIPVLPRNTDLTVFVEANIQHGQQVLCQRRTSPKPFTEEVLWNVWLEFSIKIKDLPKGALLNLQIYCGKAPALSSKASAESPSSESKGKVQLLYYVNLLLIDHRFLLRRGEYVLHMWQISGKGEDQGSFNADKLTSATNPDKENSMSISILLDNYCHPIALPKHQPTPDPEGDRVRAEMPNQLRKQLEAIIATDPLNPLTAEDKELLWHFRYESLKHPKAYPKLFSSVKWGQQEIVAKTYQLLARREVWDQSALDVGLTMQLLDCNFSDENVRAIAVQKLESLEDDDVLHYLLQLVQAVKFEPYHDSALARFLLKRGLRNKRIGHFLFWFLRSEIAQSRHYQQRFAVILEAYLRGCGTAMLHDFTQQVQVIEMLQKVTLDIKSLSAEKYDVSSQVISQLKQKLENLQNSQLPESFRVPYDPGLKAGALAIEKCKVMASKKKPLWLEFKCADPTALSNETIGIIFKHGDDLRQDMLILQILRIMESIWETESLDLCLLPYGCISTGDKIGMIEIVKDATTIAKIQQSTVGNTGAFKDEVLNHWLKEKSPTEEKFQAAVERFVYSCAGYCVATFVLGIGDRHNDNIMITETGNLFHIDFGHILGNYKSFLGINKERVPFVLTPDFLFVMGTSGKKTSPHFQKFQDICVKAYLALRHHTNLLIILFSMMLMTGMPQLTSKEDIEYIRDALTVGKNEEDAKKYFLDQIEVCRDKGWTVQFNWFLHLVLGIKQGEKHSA
T1 sequence (Q8WYR1 whole entry partner, species assumed): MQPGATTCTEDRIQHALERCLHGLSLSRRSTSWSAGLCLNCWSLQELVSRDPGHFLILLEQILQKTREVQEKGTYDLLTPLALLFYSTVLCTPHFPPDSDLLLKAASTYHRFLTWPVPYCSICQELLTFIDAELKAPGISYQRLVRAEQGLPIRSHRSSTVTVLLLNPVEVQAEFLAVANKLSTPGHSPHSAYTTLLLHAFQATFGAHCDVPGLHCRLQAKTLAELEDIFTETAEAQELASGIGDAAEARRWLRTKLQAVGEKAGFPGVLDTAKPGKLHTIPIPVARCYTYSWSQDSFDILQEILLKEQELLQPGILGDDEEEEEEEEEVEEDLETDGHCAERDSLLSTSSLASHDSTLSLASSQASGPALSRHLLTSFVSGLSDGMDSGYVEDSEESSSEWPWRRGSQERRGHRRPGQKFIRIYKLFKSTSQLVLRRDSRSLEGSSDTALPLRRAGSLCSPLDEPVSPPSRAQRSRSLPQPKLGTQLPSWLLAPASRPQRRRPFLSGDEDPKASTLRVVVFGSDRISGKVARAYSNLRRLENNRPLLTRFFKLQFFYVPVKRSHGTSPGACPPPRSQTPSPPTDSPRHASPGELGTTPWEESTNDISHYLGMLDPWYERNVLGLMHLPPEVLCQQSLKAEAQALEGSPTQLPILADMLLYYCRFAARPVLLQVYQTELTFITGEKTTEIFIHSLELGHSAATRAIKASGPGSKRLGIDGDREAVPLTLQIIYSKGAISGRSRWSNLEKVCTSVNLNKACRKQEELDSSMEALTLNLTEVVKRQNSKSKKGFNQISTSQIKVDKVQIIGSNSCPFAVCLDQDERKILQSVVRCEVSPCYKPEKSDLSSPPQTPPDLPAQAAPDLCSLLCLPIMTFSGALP

| SMILES | IC50 [nM] |
| --- | --- |
| O=C1NC(=S)SC1=Cc1ccc2c(c1)N(Cc1cccc(S(=O)(=O)N3CCOCC3)c1)C(=O)CO2 [Example 257, 4-[3-(Morpholine-4-sulfonyl)-benzyl]-6-(4-oxo-2-thioxo-thiazolidin-5-ylidenemethyl)-4H-1,4-benzoxazin-3-one] | 28 |
| CC(=O)Nc1ccc(CN2C(=O)COc3ccc(C=C4SC(=S)NC4=O)cc32)cc1 [Example 177, N-{4-[3-Oxo-6-(4-oxo-2-thioxo-thiazolidin-5-ylidenemethyl)-2,3-dihydro-1,4-benzoxazin-4-ylmethyl]-phenyl}-acetamide] | 25 |
| O=C1NC(=S)SC1=Cc1ccc2c(c1)N(Cc1cccc(Oc3ccccc3)c1)C(=O)CO2 [Example 170, 6-(4-Oxo-2-thioxo-thiazolidin-5-ylidenemethyl)-4-(3-phenoxy-benzyl)-4H-1,4-benzoxazin-3-one] | 9 |
| O=C1COc2ccc(C=C3SC(=S)NC3=O)cc2N1 [Example 1, 6-(4-Oxo-2-thioxo-thiazolidin-5-ylidenemethyl)-4H-1,4-benzoxazin-3-one] | 78 |
| O=C1NC(=S)SC1=Cc1ccc2c(c1)N(Cc1ccccn1)C(=O)CO2 [Example 147, 6-(4-Oxo-2-thioxo-thiazolidin-5-ylidenemethyl)-4-pyridin-2-ylmethyl-4H-benzo[1,4]oxazin-3-one] | 49 |
| N#Cc1cccc(CN2C(=O)COc3ccc(C=C4SC(=S)NC4=O)cc32)c1 [Example 149, 3-[3-Oxo-6-(4-oxo-2-thioxo-thiazolidin-5-ylidenemethyl)-2,3-dihydro-benzo[1,4]oxazin-4-ylmethyl]-benzonitrile] | 21 |
| CC(C)(C)c1cc(CN2C(=O)COc3ccc(C=C4SC(=O)NC4=O)cc32)cc(C(C)(C)C)c1 [Example 85, 5-[4-(3,5-Di-tert-butyl-benzyl)-3-oxo-3,4-dihydro-2H-1,4-benzoxazin-6-ylmethylene]-thiazolidine-2,4-dione] | 21 |
| O=C1NC(=O)C(=Cc2ccc3c(c2)N(Cc2ccc(OCc4ccccc4)cc2)C(=O)CO3)S1 [Example 249, 5-[4-(4-Benzyloxy-benzyl)-3-oxo-3,4-dihydro-2H-1,4-benzoxazin-6-ylmethylene]-thiazolidine-2,4-dione] | 8 |
| O=C1CC(=Cc2ccc3c(c2)NC(=O)CO3)C(=O)N1 [Example 86, 3-(3-Oxo-3,4-dihydro-2H-benzo[1,4]oxazin-6-ylmethylene)-pyrrolidine-2,5-dione] | 12300 |

More lines, now with the values ahead:

| IC50 [nM] | SMILES |
| --- | --- |
| 8 | Cc1cc(C)cc(CN2C(=O)COc3c(F)cc(C=C4SC(=S)NC4=O)cc32)c1 [Example 69, 4-(3,5-Dimethyl-benzyl)-8-fluoro-6-(4-oxo-2-thioxo-thiazolidin-5-ylidenemethyl)-4H-1,4-benzoxazin-3-one] |
| 3 | C[C@@H]1CCC[C@H](C)N1Cc1ccc(CN2C(=O)COc3ccc(C=C4SC(=S)NC4=O)cc32)cc1 [Example 27, 4-[4-((2S, 6R)-2,6-Dimethyl-piperidin-1-ylmethyl)-benzyl]-6-(4-oxo-2-thioxo-thiazolidin-5-ylidenemethyl)-4H-1,4-benzoxazin-3-one] |
| 6 | O=C1NC(=S)SC1=Cc1ccc2c(c1)N(Cc1ccc(Cl)c(C(F)(F)F)c1)C(=O)CO2 [Example 194, 4-(4-Chloro-3-trifluoromethylbenzyl)-6-(4-oxo-2-thioxo-thiazolidin-5-ylidenemethyl)-4H-1,4-benzoxazin-3-one, Potassium Salt] |
| 7 | O=C1NC(=S)SC1=Cc1ccc2c(c1)N(CCCc1ccccc1)C(=O)CO2 [Example 160, 6-(4-Oxo-2-thioxo-thiazolidin-5-ylidenemethyl)-4-(3-phenyl-propyl)-4H-1,4-benzoxazin-3-one] |
| 1 | O=C1NC(=O)C(=Cc2ccc3c(c2)N(Cc2ccc(F)c(Cl)c2)C(=O)CO3)S1 [Example 308, 5-[4-(3-Chloro-4-fluoro-benzyl)-3-oxo-3,4-dihydro-2H-benzo[1,4]oxazin-6-ylmethylene]-thiazolidine-2,4-dione] |
